The target in this assay is Poly [ADP-ribose] polymerase 1 (Homo sapiens, UniProt P09874). Kind of assay: PARP Enzyme Assay: The PARP enzyme assay is set up on ice in a volume of 100 microliters consisting of 100 mM Tris-HCl (pH 8.0), 1 mM MgCl2, 28 mM KCl, 28 mM NaCl, 0.1 mg/ml of DNase I activated herring sperm DNA (Sigma, Mo.), 3.0 micromolar [3H]nicotinamide adenine dinucleotide (470 mci/mmole), 7 micrograms/ml PARP enzyme, and various concentrations of the compounds to be tested. The reaction is initiated by incubating the mixture at 25° C. After 15 minutes of incubation, the reaction is terminated by adding 500 microliters of ice cold 20% (w/v) trichloroacetic acid. The precipitate formed is transferred onto a glass fiber filter (Packard Unifilter-GF/B) and washed three times with ethanol. After the filter is dried, the radioactivity is determined by scintillation counting.

SMILES strings stand for the structures.

Poly [ADP-ribose] polymerase 1, sequence (P09874 whole entry): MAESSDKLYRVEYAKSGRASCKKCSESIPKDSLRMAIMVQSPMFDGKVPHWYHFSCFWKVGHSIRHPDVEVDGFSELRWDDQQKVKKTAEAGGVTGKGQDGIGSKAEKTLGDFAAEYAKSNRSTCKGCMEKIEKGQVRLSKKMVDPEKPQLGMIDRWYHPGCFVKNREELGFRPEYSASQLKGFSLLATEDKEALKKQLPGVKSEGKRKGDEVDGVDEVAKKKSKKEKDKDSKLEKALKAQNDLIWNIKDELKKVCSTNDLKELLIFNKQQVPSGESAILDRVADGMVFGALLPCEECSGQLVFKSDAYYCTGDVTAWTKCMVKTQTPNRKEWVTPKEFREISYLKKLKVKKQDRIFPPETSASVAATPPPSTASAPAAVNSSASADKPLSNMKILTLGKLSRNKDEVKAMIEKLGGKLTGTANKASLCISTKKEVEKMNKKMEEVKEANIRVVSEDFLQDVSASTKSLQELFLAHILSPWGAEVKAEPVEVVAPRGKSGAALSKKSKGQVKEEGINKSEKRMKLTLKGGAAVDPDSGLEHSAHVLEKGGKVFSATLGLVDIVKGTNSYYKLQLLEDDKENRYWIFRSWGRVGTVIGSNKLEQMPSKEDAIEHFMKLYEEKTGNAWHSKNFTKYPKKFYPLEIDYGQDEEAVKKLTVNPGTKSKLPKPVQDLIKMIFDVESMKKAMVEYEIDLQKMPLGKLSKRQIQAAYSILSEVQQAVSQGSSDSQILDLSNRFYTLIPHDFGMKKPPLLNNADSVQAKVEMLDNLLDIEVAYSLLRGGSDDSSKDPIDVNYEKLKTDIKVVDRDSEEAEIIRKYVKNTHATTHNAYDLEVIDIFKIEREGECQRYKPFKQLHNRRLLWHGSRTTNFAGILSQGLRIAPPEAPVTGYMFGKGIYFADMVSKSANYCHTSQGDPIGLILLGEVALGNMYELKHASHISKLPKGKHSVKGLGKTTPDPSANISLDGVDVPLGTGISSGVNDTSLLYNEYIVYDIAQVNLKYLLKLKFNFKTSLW

Usually IC50 stands for the concentration at which inhibition is half-maximal. As to `CCN(CC)CCN(CC)Cc1ccc2c(c1)-c1n[nH]c(=O)c3cccc(c13)O2`, the IC50 was found to be 500 nM.

Source of the values: ChEMBL document CHEMBL3639262, “Diazabenzo[de] anthracen-3-one compounds and methods for inhibiting PARP” (2013).
